PubChem BioAssay (NCI)
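Exposure lasted 48 hours, with cells grown in 96-well plates and compounds tested at five concentrations. At the GI50, growth is halved. TGI: total growth inhibition.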

Legend:
Test in all cases: inhibition of tumour cell growth, NCI panel, 48 h
CCRF-CEM leukemia = test system: CCRF-CEM leukemia
HCC-2998 colon = test system: HCC-2998 colon
HL-60(TB) leukemia = test system: HL-60(TB) leukemia
M14 melanoma = test system: M14 melanoma
MALME-3M melanoma = test system: MALME-3M melanoma
MDA-MB-435 = test system: MDA-MB-435
PC-3 prostate = test system: PC-3 prostate
SK-MEL-28 melanoma = test system: SK-MEL-28 melanoma
UO-31 renal = test system: UO-31 renal
T-47D breast = test system: T-47D breast

Row | Compound | TGI (CCRF-CEM leukemia) [µM] | TGI (HCC-2998 colon) [µM] | TGI (HL-60(TB) leukemia) [µM] | TGI (M14 melanoma) [µM] | TGI (MALME-3M melanoma) [µM] | TGI (MDA-MB-435) [µM] | TGI (PC-3 prostate) [µM] | TGI (SK-MEL-28 melanoma) [µM] | TGI (UO-31 renal) [µM] | TGI (T-47D breast) [µM] | GI50 (CCRF-CEM leukemia) [µM] | GI50 (HCC-2998 colon) [µM] | GI50 (HL-60(TB) leukemia) [µM] | GI50 (M14 melanoma) [µM] | GI50 (PC-3 prostate) [µM] | GI50 (SK-MEL-28 melanoma) [µM] | GI50 (T-47D breast) [µM]
1 | CCOC(=O)/C=C1/Nc2cc(F)c(F)cc2NC1=O | > 100 | > 100 | > 100 | > 100 | > 100 | > 100 | > 100 | > 100 | > 100 | – | – | – | – | – | – | – | –
2 | Cc1oc2c(C)c3oc(=O)cc(C)c3cc2c1CN | > 100 | 64.7 | > 100 | > 100 | 86 | – | – | > 100 | > 100 | – | – | – | – | – | – | – | –
3 | CC(C)(C)c1cc(C2NC(=O)NC2=O)cc(C(C)(C)C)c1O (stereo not given) | > 100 | – | – | > 100 | > 100 | > 100 | > 100 | > 100 | > 100 | > 100 | – | – | – | – | – | – | –
4 | CC1=CC(=O)/C(=C/N2CCNC2=S)C(=O)O1 | > 100 | > 100 | > 100 | > 100 | – | > 100 | > 100 | – | > 100 | > 100 | – | – | – | – | – | – | –
5 | C1=C[C@]2(CCC13OCCO3)COc1ccccc12 | > 100 | > 100 | 38.4 | > 100 | – | > 100 | > 100 | > 100 | > 100 | > 100 | – | – | – | – | – | – | –
6 | NC(=S)N/N=C(\C(=O)Nc1ccc(Cl)c(Cl)c1)C1=NN(c2ccccc2)C(c2cccc([N+](=O)[O-])c2)CC1=O (stereo not given) | 62 | > 100 | > 100 | > 100 | > 100 | – | – | > 100 | > 100 | – | – | – | – | – | – | – | –
7 | Cc1ccc(C2(c3ccc(C)c(O)c3C)CCN(C)CC2)c(C)c1O | > 100 | – | – | > 100 | > 100 | > 100 | > 100 | > 100 | > 100 | > 100 | – | – | – | – | – | – | –
8 | C/C(NC(=O)c1ccccc1)=C(/C(=O)c1ccccc1)[C@@H]1OC(C)(C)O[C@@H]1[C@H]1COC(C)(C)O1 | – | 87.6 | 43.8 | > 100 | > 100 | 39.9 | > 100 | > 100 | 30.1 | – | – | – | – | – | – | – | –
9 | C/C(=N\n1c(Cc2ccccc2)n[nH]c1=O)c1ccc([N+](=O)[O-])cc1 | – | – | > 100 | > 100 | > 100 | > 100 | > 100 | > 100 | > 100 | > 100 | – | – | – | – | – | – | –
10 | O=[N+]([O-])c1ccc(Cl)cc1N/N=C/c1cccs1 | > 100 | > 100 | > 100 | > 100 | – | > 100 | > 100 | > 100 | > 100 | > 100 | – | – | – | – | – | – | –
11 | C=CCc1cccc2cc(C(=O)Nc3nc(C45CC6CC(CC(C6)C4)C5)cs3)c(=O)oc12 | > 100 | > 100 | > 100 | – | > 100 | > 100 | > 100 | > 100 | 25.2 | – | – | – | – | – | – | – | –
12 | CC(=O)N1C(OCc2ccccc2)CCN1c1ccccc1 (stereo not given) | > 10 | – | > 10 | > 10 | > 10 | > 10 | > 10 | > 10 | > 10 | > 10 | – | – | – | – | – | – | –
13 | CN(/N=C/c1ccc(Cl)c(Cl)c1)C1=NCCN1 | > 100 | 75.2 | – | 31.6 | 36.9 | 44.6 | 38.3 | – | – | 90.8 | – | – | – | – | – | – | –
14 | O=c1c(S(=O)(=O)Oc2ccccc2)coc2cc(F)ccc12 | > 100 | > 100 | – | > 100 | > 100 | > 100 | > 100 | > 100 | > 100 | > 100 | – | – | – | – | – | – | –
15 | CCc1cc2c(oc3c4ccccc4ccc23)c(=O)[nH]1 | > 10 | – | > 10 | > 10 | – | > 10 | > 10 | – | > 10 | – | – | – | – | – | – | – | –
16 | Cc1ccsc1/C=N/Nc1ccccn1 | > 100 | > 100 | – | > 100 | > 100 | > 100 | > 100 | > 100 | > 100 | > 100 | – | – | – | – | – | – | –
17 | S=C1CSc2c(cnc3ccccc23)N1 | > 100 | – | > 100 | > 100 | > 100 | > 100 | > 100 | > 100 | > 100 | > 100 | – | – | – | – | – | – | –
18 | COc1cc(C(CC(OC)OC)=C(C#N)C#N)cc(OC)c1OC | 59.1 | 40.4 | 67.8 | – | 76.9 | – | – | > 100 | > 100 | – | – | – | – | – | – | – | –
19 | COc1ccc(N2C(=O)C3c4[nH]c5ccccc5c4C4CCC(C(C)(C)C)CC4C3C2=O)cc1OC (stereo not given) | 98.5 | > 100 | > 100 | > 100 | > 100 | – | – | > 100 | > 100 | – | – | – | – | – | – | – | –
20 | CC(C)C[C@H](NC(=O)[C@H](CCc1ccccc1)NC(=O)c1ccc2ccccc2n1)B(O)O | – | 0.149 | 0.0955 | 0.0289 | – | < 0.0123 | 1.19 | 0.055 | 0.588 | – | – | – | – | – | – | – | –
21 | C/C(=C/c1c(C)[nH]c(=O)[nH]c1=O)C(=O)O | > 1380 | > 1380 | > 1380 | – | > 1380 | – | – | > 1380 | > 1380 | – | – | – | – | – | – | – | –
22 | COc1ccc(/C=C/C(c2cc(OC)c(OC)c(OC)c2)n2cncn2)cc1O (stereo not given) | > 100 | > 100 | 0.0627 | 5.12 | – | – | > 100 | > 100 | – | > 100 | 0.032 | 3 | 0.0245 | 0.0287 | 0.036 | 3.62 | > 100
23 | N#CI1OC(C(F)(F)F)(C(F)(F)F)c2ccccc21 | > 100 | 36.1 | > 100 | 36.2 | – | 38.4 | 30.1 | 37.4 | 28.6 | 49.3 | – | – | – | – | – | – | –
24 | Cc1nc2sccn2c1C(=O)OCCOCCOCCOCCOC(=O)c1c(C)nc2sccn12 | – | > 100 | 34 | > 100 | > 100 | > 100 | > 100 | > 100 | > 100 | – | – | – | – | – | – | – | –
